According to US20220041578A1, “ISOINDOLINE COMPOUND, AND PREPARATION METHOD, PHARMACEUTICAL COMPOSITION, AND APPLICATION OF ISOINDOLINE COMPOUND” (Shanghai Institute of Meteria Medica, Chinese Academy of …, priority 2018, published 2022):
Read-outs that look alike come from different tables or passages of the source.

Assays:
Format in all cases: cell-based
[1] = system: prostate cancer cells PC-3; assay: Proliferation of other tumor cells, PC-3 (WST-8); settings: Homo sapiens, 96 h, PC-3 cells, 4 days, read-out: Inhibitory activity on proliferation, PC-3 (IC50)
Protocol: (§1) The human triple negative breast cancer cells MDA-MB-468 and MDA-MB-231 used in this experiment were purchased from the Shanghai Cell Bank, in which L-15 medium added with 10% fetal bovine serum (FBS) and 1% double antibody was used. At 37° C., MDA-MB-468 and MDA-MB-231 cells were cultured in an incubator without CO2. Colorectal cancer cells HCT-116 were cultured in McCOY's 5A medium with 1% double antibody and 10% fetal bovine serum (FBS); prostate cancer cells DU145 were cultured in MEM medium with 1% double antibody and 10% fetal bovine serum (FBS); prostate cancer cells PC-3 were cultured in F-12 K medium with 1% double antibody and 10% fetal bovine serum (FBS); grew at 37° C., 5% CO2.
(§2) In the cell activity test experiment, 90 μL cell suspension with appropriate concentration was added to a 96-well cell culture plate according to the cell growth, each compound to be tested was gradient diluted with the corresponding medium, 10 μL diluted compound was added to 90 μL cells, and then incubated at 37° C. for 4 days. Cell proliferation was analyzed by WST-8, which could be reduced by lactate dehydrogenase in the cells to a yellow formazan. 10 μL of WST-8 reagent (DOJINDO) was added to the cells and reacted for more than 1 hour at 37° C., DMSO-treated cells were used as […]. The absorption value of 490 nm was read by enzyme-labeled plate, and the absorption value of 690 nm was taken as the background value, and OD490-OD690 was taken as the final original data, and the data was processed by GraphPad Prism6 software. The formula for calculating the inhibition rate of the compound was: inhibition rate=(ODDMSO−ODcompound)/(ODDMSO−Oblank)×100%. The compound's proliferation inhibition IC50 was fitted by Graph Pad Prism 5.0. The experiment was repeated three times, and three parallel experiments were used to calculate the average and standard deviation each time. The cell viability test results were shown in Table 4: A means cell viability IC50<1 μM, B means cell viability 1 μM≤IC50≤20 μM, C means cell viability IC50>20 μM, NT means not tested.

TNF-α = TNF-α activity inhibition experiment in LPS-stimulated PBMC (ELISA); settings: Homo sapiens, compound 10 nM, LPS 1 ug/ml, 72 hours, read-out: Inhibition rate of TNF-a (%)
Protocol: All operations of this experiment were carried out according to the conventional experimental process of this kind of experiment at present. Peripheral blood from healthy volunteers was collected by routine standard procedure and cultured in 1640 medium (+10% FBS) to obtain PBMC. After recovery, PBMC was centrifuged and resuspended in serum-free medium. After counting, adjusted the density to be 6.25×10^5/ml; then inoculated 160 ul to a 96-well plate, 1×10^5/well; 20 ul 10× compound and DMSO were added, and incubated for 1 hour in an incubator; then 20 ul 10 XLPS was added resulting the final concentration of 1 ug/ml and incubated in an incubator for 72 hours. Centrifuged the cell plate at 1500 rpm and aspirated 50 ul supernatant according to the ELISA operation. After operating according to the kit, a microplate reader was used to read at 450 nm. The concentration of compound was 10 nM, and DMSO was added as control group. Materials used in this experiment: 96 well plate (Corning, #3599), ELISA kit (Thermo), LPS (Sigma, USA).

[2] = system: Colorectal cancer cells HCT-116; assay: Proliferation of other tumor cells, HCT-116 (WST-8); settings: Homo sapiens, 96 h, HCT-116 cells, 4 days, read-out: Inhibitory activity on proliferation, HCT-116 (IC50)
Protocol: as §1, §2

MM.1S cells = assay: Effect of the compound on the proliferation of MM.1S cells (MTS); settings: Homo sapiens, MM1.S, 168 h, 7 days, read-out: Cell inhibitory activity (IC50)
Method in brief: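 In 1640 medium + 10% FBS, 20,000 cells per well were treated with 5-fold compound dilutions at 0.2% DMSO for 7 days at 37° C., 5% CO2. MTS was read after 3–4 h as OD490−OD690, inhibition was calculated against DMSO and blank wells, and IC50 was fitted; three independent experiments were run.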

[3] = system: triple negative breast cancer cells MDA-MB-231; assay: Proliferation of other tumor cells, MDA-MB-231 (WST-8); settings: Homo sapiens, 96 h, MDA-MB-231 cells, 4 days, read-out: Inhibitory activity on proliferation, MDA-MB-231 (IC50)
Protocol: as §1, §2

MV-4-11 cells = assay: Effect of the compound on proliferation of MV-4-11 cells (MTS); settings: Homo sapiens
Protocol: MV-4-11 cells were cultured with IMDM plus 10% fetal bovine serum and collected. The cell concentration was diluted according to the action time of 7 days, and 180 ul of cell suspension was added to each well of a 96-well cell plate to make the cell count to be 2000. 20 ul of DMSO with a final concentration of 0.2% was added to the control cell wells. The compound was diluted 5-fold with the 10 mM stock solution, and 20 ul was also added to the compound cell wells (the final concentration of DMSO was 0.2%). The cells were placed in a 37° C., 5% CO2 incubator and incubated for 7 days. After preparing the reaction solution according to the MTS kit (Promega, G5430), 20 μL was added to each well, incubated in a 37° C., 5% CO2 incubator for 3-4 h. Read the 490 nm absorbance value with a microtiter plate, and used the 690 nm absorbance value as the background value and OD490-OD690 as the final initial data. The formula for calculating the inhibition rate of the compound was: inhibition rate=(OD DMSO-ODcompound)/(ODDMSO-Oblank)×100%. The compound's proliferation inhibition IC50 was fitted by Graph Pad Prism 5.0. The experiment was repeated three times, and three parallel experiments were used to calculate the average and standard deviation each time. The cell viability test results were shown in Table 3: A means cell viability IC50<1 μM, B means cell viability 1 μM≤IC50≤20 μM, C means cell viability IC50>20 μM.

- IC50 [1]: > 20 µM
- IC50 [2]: > 20 µM
- IC50 (MM.1S cells): < 0.15 µM
- IC50 [3]: > 20 µM
- IC50 (MV-4-11 cells; MV4-11, 168 h, 7 days, MTS, read-out: Inhibitory activity (IC50)): > 20 µM
- IC50 (MV-4-11 cells; MV4-11, read-out: cytostatic activity (IC50) on MV-4-11 cells): > 20 µM
SMILES: Nc1cccc2c1CN(C1CCC(=O)NC1=O)C2=O (stereo not shown) [Lenalidomide, lenalidomide, reference compound]
- inhibition at 0.01 µM (TNF-α): < 50%
